Publication PMC8541575, “Optimization and Development of Selective Histone Deacetylase Inhibitor (MPT0B291)-Loaded Albumin Nanoparticles for Anticancer Therapy” (Pharmaceutics, 2021)

Legend:
MIA PaCa-2 cells = assay: Cell viability (MTT) assay; format: cell-based; conditions: Homo sapiens, 24 h of exposure, read-out: 50% inhibitory concentration (IC50)
Experimental: Briefly, MIA PaCa-2 cells were seeded (5 × 10^3 cells/well) in 96-well culture plates. After 24 h of incubation in a humidified incubator at 37 °C with 5% CO2, the medium of adherent cells was replaced with serum-free culture medium and incubated with 200 μL of serial dilutions of HSA-NPs (0.01~1000 μg/mL) and MPT0B291-HSAX NPs ([…]). After another 24 h, 100 µL of MTT (500 μg/mL in PBS, pH 7.4) was added and incubated at 37 °C for 2 h. The medium was then removed, and 100 µL of DMSO was added to each well to dissolve the crystals. The optical density (OD) was measured at 540 nm using a microplate reader (Cytation™ 3 Cell Imaging Multi-Mode Reader, BioTek, Winooski, VT, USA). The cell survival rate was calculated as follows:(3) Cell survival rate (%)=Absorbance value of test solution group /Absorbance value of blank solution group ×100%

[1] = In vivo pharmacokinetic study after intravenous administration; conditions: male, Sprague-Dawley, rat, plasma, rats, i.v., 5 mg/kg body weight, mean ± SD (n = 4)
Experimental: Male Sprague-Dawley rats (250 ± 15 g) were divided into two groups (with four rats per group). […] All collected blood samples were centrifuged at 4000 rpm and 4 °C for 10 min, and supernatant plasma samples were obtained and frozen at -80 °C for further analysis. Quantitative analysis of MPT0B291 in rat plasma by an ultra-precision liquid chromatographic tandem mass spectroscopic (UPLC-MS/MS) method was performed using an Agilent 1290 Infinity II LC System (Agilent, Wilmington, DE, USA) coupled with an Agilent 6470 triple quadrupole LC/MS system (Agilent Technologies, Santa Clara, CA, USA). Optimized chromatographic separation of MPT0B291 was conducted with an ACQUITY UPLC BEH C18 column (1.7 μm, 2.1 × 100 mm; Waters, Milford, MA, USA) at an oven temperature of 40 °C. The mobile phase was 0.1% (v/v) formic acid in water (mobile phase A) and acetonitrile containing 0.1% (v/v) formic acid (mobile phase B) with gradient elution at a flow rate of 0.3 mL/min. All analytical procedures were evaluated with positive electrospray ionization (ESI). The LC gradient was programmed in linear steps as follows: 0~0.5 min, 5% mobile phase B (v/v); 0.5~1 min, 5% mobile phase B to 100% mobile phase B (v/v); 1~2.8 min, 100% mobile phase B; 2.8~3 min, 100% mobile phase B to 5% mobile phase B (v/v); and 3~4 min, 5% mobile phase B (v/v). Quantification was achieved using the multiple reaction monitoring (MRM) mode at m/z 344.1 → 91.0 for MPT0B291. The following PK parameters were determined: the area under the concentration-time curve (AUC), maximum peak concentration (Cmax), time of maximum peak concentration (Tmax), and mean residence time (MRT). These parameters were determined by DAS software vers. 2.0. All data are presented as mean ± standard deviation (SD).

[2] = tested on: healthy Balb/c female mice; assay: Maximum tolerated dose, single i.v. dose; format: in vivo
Experimental: The single-dose study was conducted using healthy female mice with four animals per group.

[3] = In vitro drug release by dialysis bag; format: physicochemical; conditions: 0.25 mg/mL in propylene glycol, pH 7.4 phosphate buffer with 1% Tween 80, 37 °C
Experimental: The dialysis bag was subsequently placed into 25 mL of release medium (PBS) containing 1% v/v Tween 80. The temperature was maintained at 37.0 ± 0.5 °C, and the medium was stirred at a speed of 100 rpm. MPT0B291 which had been dissolved in propylene glycol (free MPT0B291; 0.25 mg/mL) was used as a control and was treated in the same manner. During a period of 48 h, the surrounding environment was maintained by replacing 2 mL of the release medium with an equal volume of fresh medium at regular intervals. The extraction solution was solubilized in 500 μL of acetonitrile and assayed by HPLC.

Question: Which IC50 (MIA PaCa-2 cells) does the source give for O=C(/C=C/c1cccc(S(=O)(=O)n2ccc3cccnc32)c1)NO [MPT0B291] here?
Answer: 4.71 µM

Question: And the AUC(0-inf) [1]?
Answer: 293 ± 39.2 ng·h/mL

Question: What about the AUC(0-t) ([1]; read-out: AUC0–24h) of the same molecule?
Answer: 291 ± 39.7 ng·h/mL

Question: What about the clearance ([1]; read-out: CL (clearance)) of the same molecule?
Answer: 288 ± 36.7 mL/min/kg

Question: What about the MRT ([1]; read-out: MRT (mean residence time)) of the same molecule?
Answer: 1.86 ± 0.66 h

Question: What about the Vd ([1]; read-out: Vss (volume of distribution at steady state)) of the same molecule?
Answer: 32.6 ± 12.3 L/kg

Question: And the half-life ([1]; read-out: t1/2 (elimination half-life) (converted))?
Answer: 124 ± 38.4 min

Question: And the “Mortality after single i.v. dose of 150 mg/kg BW” value ([2]; n = 4)?
Answer: one mouse was found dead after 24 h and another one also died on the following day

Question: And the “Maximum tolerated dose (MTD)” value ([2]; single dose, i.v. route)?
Answer: approximately 75 mg/kg BW

Question: What about the “Drug released within 1 h” value [3] of the same molecule?
Answer: 60%

Question: And the “Drug released within 8 h” value [3]?
Answer: ~100%
